Data published in patent US7795237B2, “Pharmaceutical composition and process” (priority 2005, dated 2010).

Assays:
hepatitis C virus (HCV) = assay: Viral load of patients infected with hepatitis C virus; assay type: in vivo
[1] = Behaviour on exposure to water (gelling); assay type: physicochemical; conditions: crystalline form exposed to water

SMILES: CC(C)C(=O)OC[C@@]1(N=[N+]=[N-])O[C@@H](n2ccc(N)nc2=O)[C@H](OC(=O)C(C)C)[C@@H]1OC(=O)C(C)C.Cl [I, isobutyric acid (2R,3S,4R,5R)-5-(4-amino-2-oxo-2H-pyrimidin-1-yl)-2-azido-3,4-bis-iso-butyryloxy-tetrahydro-furan-2-ylmethyl ester; hydrochloride salt]
- viral load (hepatitis C virus (HCV)): decrease the viral load
- gel formation when exposed to water [1]: readily forms a gel when exposed to water
